Results published in patent US8952024B2, “Herbicidal pyrimidone derivatives” (E I du Pont de Nemours and Company, priority 2009, dated 2015).

How the values were obtained:
Format in all cases: in vivo
[1] = test system: barnyardgrass (Echinochloa crus-galli); test: Test B flooded paddy test; details: for Plant response rating, Flood, Barnyardgrass: 250 g ai/ha, flooded paddy test, visual rating on 0 to 100 scale (0 no effect, 100 complete control) after 13 to 15 days; for Plant response rating, Barnyardgrass: Flood (flooded paddy test), 13 to 15 days
Description: (§1) Plant species in the flooded paddy test consisted of rice (Oryza sativa), umbrella sedge (Cyperus difformis), ducksalad (Heteranthera limosa) and barnyardgrass (Echinochloa crus-galli) grown to the 2-leaf stage for testing. At the time of treatment, test pots were flooded with water to 3 cm above the soil surface, treated by application of test compounds directly to the paddy water, and then maintained at that water depth for the duration of the test.
(§2) Treated plants and controls were maintained in a greenhouse for 13 to 15 days, after which time all treated plants were visually evaluated and compared to controls. Plant response ratings, summarized in Table B, are based on a scale of 0 to 100 where 0 is no effect and 100 is complete control. A dash (-) response means no test result.

[2] = test system: ducksalad (Heteranthera limosa); test: Test B flooded paddy test; details: for Plant response rating, Flood, Ducksalad: 250 g ai/ha, flooded paddy test, visual rating on 0 to 100 scale (0 no effect, 100 complete control) after 13 to 15 days; for Plant response rating, Ducksalad: Flood (flooded paddy test), 13 to 15 days
Description: as §1, §2

rice (Oryza sativa) = test: Test B flooded paddy test; details: for Plant response rating, Flood, Rice: 250 g ai/ha, flooded paddy test, visual rating on 0 to 100 scale (0 no effect, 100 complete control) after 13 to 15 days; for Plant response rating, Rice: Flood (flooded paddy test), 13 to 15 days
Description: as §1, §2

[3] = test system: umbrella sedge (Cyperus difformis); test: Test B flooded paddy test; details: for Plant response rating, Flood, Sedge, Umbrella: 250 g ai/ha, flooded paddy test, visual rating on 0 to 100 scale (0 no effect, 100 complete control) after 13 to 15 days; for Plant response rating, Sedge, Umbrella: Flood (flooded paddy test), 13 to 15 days
Description: as §1, §2

[4] = test system: barnyardgrass (Echinochloa crus-galli); test: Test A pre-/postemergence plant response
Description: (§3) Seeds of barnyardgrass (Echinochloa crus-galli), large crabgrass (Digitaria sanguinalis), giant foxtail (Setaria faberii), morningglory (Ipomoea spp.), pigweed (Amaranthus retroflexus), velvetleaf (Abutilon theophrasti), wheat (Triticum aestivum) and corn (Zea mays) were planted into a blend of loam soil and sand and treated preemergence with a directed soil spray using test chemicals formulated in a non-phytotoxic solvent mixture which included a surfactant. At the same time these species were also treated with postemergence applications of test compounds formulated in the same manner.
(§4) Plants ranged in height from two to ten cm and were in the one- to two-leaf stage for the postemergence treatment. Treated plants and untreated controls were maintained in a greenhouse for approximately ten days, after which time all treated plants were compared to untreated controls and visually evaluated for injury. Plant response ratings, summarized in Table A, are based on a 0 to 100 scale where 0 is no effect and 100 is complete control. A dash (-) response means no test result.

[5] = test system: large crabgrass (Digitaria sanguinalis); test: Test A pre-/postemergence plant response
Description: as §3, §4

[6] = test system: wheat (Triticum aestivum); test: Test A pre-/postemergence plant response
Description: as §3, §4

[7] = test system: morningglory (Ipomoea spp.); test: Test A pre-/postemergence plant response
Description: as §3, §4

[8] = test system: velvetleaf (Abutilon theophrasti); test: Test A pre-/postemergence plant response
Description: as §3, §4

[9] = test system: pigweed (Amaranthus retroflexus); test: Test A pre-/postemergence plant response
Description: as §3, §4

[10] = test system: giant foxtail (Setaria faberii); test: Test A pre-/postemergence plant response
Description: as §3, §4

corn (Zea mays) = test: Test A pre-/postemergence plant response
Description: as §3, §4

[11] = 31 g ai/ha, scale of 0 to 100 where 0 is no effect and 100 is complete control
[12] = 62 g ai/ha, scale 0 to 100, 0 is no effect, 100 is complete control
[13] = 125 g ai/ha, scale 0 to 100, 0 is no effect, 100 is complete control
[14] = Postemergence, 125 g ai/ha, visual injury, 0 to 100 scale (0 no effect, 100 complete control), approx. ten days
[15] = Postemergence, 500 g ai/ha, 0 to 100 scale, 0 = no effect, 100 = complete control, approx. ten days
[16] = Preemergence, 125 g ai/ha, 0 to 100 scale, 0 = no effect, 100 = complete control
[17] = Preemergence, 500 g ai/ha, visual injury, 0 to 100 scale (0 no effect, 100 complete control), approx. ten days
[18] = 62 g ai/ha, scale of 0 to 100 where 0 is no effect and 100 is complete control

C=CCn1c(-c2ccccc2)ncc(C(=O)C2=C(O)CCCC2=O)c1=O [Compound 23]
Plant response rating, Flood, Barnyardgrass [1]: 0
Plant response rating, Barnyardgrass [1, 11]: 0
Plant response rating, Barnyardgrass [1, 12]: 0
Plant response rating, Barnyardgrass [1, 13]: 0
Plant response rating, Flood, Ducksalad [2]: 45
Plant response rating, Ducksalad [2, 11]: 20
Plant response rating, Ducksalad [2, 12]: 35
Plant response rating, Ducksalad [2, 13]: 45
Plant response rating, Flood, Rice (rice (Oryza sativa)): 15
Plant response rating, Rice (rice (Oryza sativa); [11]): 0
Plant response rating, Rice (rice (Oryza sativa); [12]): 0
Plant response rating, Rice (rice (Oryza sativa); [13]): 0
Plant response rating, Flood, Sedge, Umbrella [3]: 45
Plant response rating, Sedge, Umbrella [3, 11]: 20
Plant response rating, Sedge, Umbrella [3, 12]: 30
Plant response rating, Sedge, Umbrella [3, 13]: 40
Barnyardgrass plant response rating [4, 14]: 10
Plant response rating, Barnyardgrass [4, 15]: 60
Plant response rating, Barnyardgrass [4, 16]: 0
Plant response rating, Barnyardgrass [4, 17]: 70
Crabgrass, Large plant response rating [5, 14]: 30
Plant response rating, Crabgrass, Large [5, 15]: 60
Plant response rating, Crabgrass, Large [5, 16]: 10
Plant response rating, Crabgrass, Large [5, 17]: 90
Wheat plant response rating [6, 14]: 0
Plant response rating, Wheat [6, 15]: 0
Plant response rating, Wheat [6, 16]: 0
Plant response rating, Wheat [6, 17]: 0
Morningglory plant response rating [7, 14]: 50
Plant response rating, Morningglory [7, 15]: 100
Plant response rating, Morningglory [7, 16]: 0
Plant response rating, Morningglory [7, 17]: 70
Velvetleaf plant response rating [8, 14]: 100
Plant response rating, Velvetleaf [8, 15]: 100
Plant response rating, Velvetleaf [8, 16]: 40
Plant response rating, Velvetleaf [8, 17]: 100
Pigweed plant response rating [9, 14]: 80
Plant response rating, Pigweed [9, 15]: 100
Plant response rating, Pigweed [9, 16]: 50
Plant response rating, Pigweed [9, 17]: 70
Foxtail, Giant plant response rating [10, 14]: 10
Plant response rating, Foxtail, Giant [10, 15]: 50
Plant response rating, Foxtail, Giant [10, 16]: 0
Plant response rating, Foxtail, Giant [10, 17]: 20
Corn plant response rating (corn (Zea mays); [14]): 0
Plant response rating, Corn (corn (Zea mays); [15]): 0
Plant response rating, Corn (corn (Zea mays); [16]): 0
Plant response rating, Corn (corn (Zea mays); [17]): 0

CSc1ncc(C(=O)C2=C(O)CCCC2=O)c(=O)n1-c1ccccc1 [Compound 30]
Plant response rating, Flood, Barnyardgrass [1]: 0
Plant response rating, Barnyardgrass [1, 12]: 0
Plant response rating, Flood, Ducksalad [2]: 50
Plant response rating, Ducksalad [2, 12]: 20
Plant response rating, Flood, Rice (rice (Oryza sativa)): 0
Plant response rating, Rice (rice (Oryza sativa); [12]): 0
Plant response rating, Flood, Sedge, Umbrella [3]: 50
Plant response rating, Sedge, Umbrella [3, 12]: 20
Barnyardgrass plant response rating [4, 14]: 10
Plant response rating, Barnyardgrass [4, 15]: 30
Plant response rating, Barnyardgrass [4, 16]: 0
Plant response rating, Barnyardgrass [4, 17]: 40
Crabgrass, Large plant response rating [5, 14]: 30
Plant response rating, Crabgrass, Large [5, 15]: 60
Plant response rating, Crabgrass, Large [5, 16]: 0
Plant response rating, Crabgrass, Large [5, 17]: 60
Wheat plant response rating [6, 14]: 0
Plant response rating, Wheat [6, 15]: 0
Plant response rating, Wheat [6, 16]: 0
Plant response rating, Wheat [6, 17]: 0
Morningglory plant response rating [7, 14]: 30
Plant response rating, Morningglory [7, 15]: 50
Plant response rating, Morningglory [7, 16]: 0
Plant response rating, Morningglory [7, 17]: 60
Velvetleaf plant response rating [8, 14]: 100
Plant response rating, Velvetleaf [8, 16]: 20
Plant response rating, Velvetleaf [8, 17]: 70
Pigweed plant response rating [9, 14]: 70
Plant response rating, Pigweed [9, 15]: 80
Plant response rating, Pigweed [9, 16]: 0
Plant response rating, Pigweed [9, 17]: 80
Foxtail, Giant plant response rating [10, 14]: 10
Plant response rating, Foxtail, Giant [10, 15]: 40
Plant response rating, Foxtail, Giant [10, 16]: 0
Plant response rating, Foxtail, Giant [10, 17]: 10
Corn plant response rating (corn (Zea mays); [14]): 0
Plant response rating, Corn (corn (Zea mays); [15]): 0
Plant response rating, Corn (corn (Zea mays); [16]): 0
Plant response rating, Corn (corn (Zea mays); [17]): 0

O=C1CCCC(O)=C1C(=O)c1cnc(-c2ccccc2Cl)n(-c2ccccc2)c1=O [Compound 35]
Plant response rating, Flood, Barnyardgrass [1]: 0
Plant response rating, Barnyardgrass [1, 11]: 0
Plant response rating, Barnyardgrass [1, 12]: 0
Plant response rating, Barnyardgrass [1, 13]: 0
Plant response rating, Flood, Ducksalad [2]: 0
Plant response rating, Ducksalad [2, 11]: 0
Plant response rating, Ducksalad [2, 12]: 0
Plant response rating, Ducksalad [2, 13]: 0
Plant response rating, Rice (rice (Oryza sativa); [11]): 0
Plant response rating, Rice (rice (Oryza sativa); [12]): 0
Plant response rating, Rice (rice (Oryza sativa); [13]): 0
Plant response rating, Flood, Sedge, Umbrella [3]: 0
Plant response rating, Sedge, Umbrella [3, 11]: 0
Plant response rating, Sedge, Umbrella [3, 12]: 0
Plant response rating, Sedge, Umbrella [3, 13]: 0
Barnyardgrass plant response rating [4, 14]: 10
Plant response rating, Barnyardgrass [4, 15]: 60
Plant response rating, Barnyardgrass [4, 16]: 0
Plant response rating, Barnyardgrass [4, 17]: 0
Crabgrass, Large plant response rating [5, 14]: 50
Plant response rating, Crabgrass, Large [5, 15]: 80
Plant response rating, Crabgrass, Large [5, 16]: 10
Plant response rating, Crabgrass, Large [5, 17]: 60
Wheat plant response rating [6, 14]: 0
Plant response rating, Wheat [6, 15]: 0
Plant response rating, Wheat [6, 16]: 0
Plant response rating, Wheat [6, 17]: 0
Plant response rating, Morningglory [7, 15]: 80
Plant response rating, Morningglory [7, 17]: 20
Velvetleaf plant response rating [8, 14]: 100
Plant response rating, Velvetleaf [8, 15]: 100
Plant response rating, Velvetleaf [8, 16]: 0
Plant response rating, Velvetleaf [8, 17]: 70
Pigweed plant response rating [9, 14]: 80
Plant response rating, Pigweed [9, 15]: 100
Plant response rating, Pigweed [9, 16]: 10
Plant response rating, Pigweed [9, 17]: 100
Foxtail, Giant plant response rating [10, 14]: 40
Plant response rating, Foxtail, Giant [10, 15]: 80
Plant response rating, Foxtail, Giant [10, 16]: 0
Plant response rating, Foxtail, Giant [10, 17]: 10
Corn plant response rating (corn (Zea mays); [14]): 0
Plant response rating, Corn (corn (Zea mays); [15]): 10
Plant response rating, Corn (corn (Zea mays); [16]): 0
Plant response rating, Corn (corn (Zea mays); [17]): 0

CCCCCCc1ncc(C(=O)C2=C(O)CCCC2=O)c(=O)n1-c1ccccc1 [Compound 54]
Plant response rating, Flood, Barnyardgrass [1]: 0
Plant response rating, Barnyardgrass [1, 11]: 0
Plant response rating, Barnyardgrass [1, 18]: 0
Plant response rating, Barnyardgrass [1, 13]: 0
Plant response rating, Flood, Ducksalad [2]: 40
Plant response rating, Ducksalad [2, 11]: 0
Plant response rating, Ducksalad [2, 18]: 0
Plant response rating, Ducksalad [2, 13]: 30
Plant response rating, Flood, Rice (rice (Oryza sativa)): 0
Plant response rating, Rice (rice (Oryza sativa); [11]): 0
Plant response rating, Rice (rice (Oryza sativa); [18]): 0
Plant response rating, Rice (rice (Oryza sativa); [13]): 0
Plant response rating, Flood, Sedge, Umbrella [3]: 40
Plant response rating, Sedge, Umbrella [3, 11]: 0
Plant response rating, Sedge, Umbrella [3, 18]: 0
Plant response rating, Sedge, Umbrella [3, 13]: 0
Barnyardgrass plant response rating [4, 14]: 10
Plant response rating, Barnyardgrass [4, 15]: 60
Plant response rating, Barnyardgrass [4, 16]: 0
Plant response rating, Barnyardgrass [4, 17]: 10
Crabgrass, Large plant response rating [5, 14]: 40
Plant response rating, Crabgrass, Large [5, 15]: 70
Plant response rating, Crabgrass, Large [5, 16]: 0
Plant response rating, Crabgrass, Large [5, 17]: 30
Wheat plant response rating [6, 14]: 0
Plant response rating, Wheat [6, 15]: 0
Plant response rating, Wheat [6, 16]: 0
Plant response rating, Wheat [6, 17]: 0
Morningglory plant response rating [7, 14]: 40
Plant response rating, Morningglory [7, 15]: 100
Plant response rating, Morningglory [7, 16]: 0
Plant response rating, Morningglory [7, 17]: 0
Velvetleaf plant response rating [8, 14]: 100
Plant response rating, Velvetleaf [8, 15]: 100
Plant response rating, Velvetleaf [8, 16]: 60
Plant response rating, Velvetleaf [8, 17]: 70
Pigweed plant response rating [9, 14]: 100
Plant response rating, Pigweed [9, 15]: 100
Plant response rating, Pigweed [9, 16]: 80
Plant response rating, Pigweed [9, 17]: 90
Foxtail, Giant plant response rating [10, 14]: 10
Plant response rating, Foxtail, Giant [10, 15]: 60
Plant response rating, Foxtail, Giant [10, 16]: 0
Plant response rating, Foxtail, Giant [10, 17]: 0
Corn plant response rating (corn (Zea mays); [14]): 0
Plant response rating, Corn (corn (Zea mays); [15]): 10
Plant response rating, Corn (corn (Zea mays); [16]): 0
Plant response rating, Corn (corn (Zea mays); [17]): 0
